Molecules are shown by their SMILES.

This is an account of results in US20110065714A1, “SUBSTITUTED QUINAZOLINES” (Shire LLC, priority 2008, published 2011).

Data set [1] concerns human megakaryocytopoiesis. Conditions: cited from earlier work.
Data set [2] has as its target human phosphodiesterase III (PDE III). To be noted: cited from earlier work.
In data set [3] the test system is erythroid or myelomonocytic differentiation. Conditions: stimulated by erythropoietin or granulocyte-macrophage colony-stimulating factor; cited from earlier work.
For data set [4] the following is noted: human, in vivo; cited from earlier work.
In data set [5] the test system is human phosphodiesterase III (PDE III). The data set can be described thus: PDE III inhibition. It counts as biochemical. To be noted: more potent than anagrelide.
Data set [6] in a line: pharmacokinetics of anagrelide and its metabolite in patients. Conditions: typical exposures, greater than anagrelide. In kind it is in vivo, human.

One may read the IC50 as the point on the concentration scale where inhibition reaches its midpoint. With `O=C1CN2Cc3c(ccc(Cl)c3Cl)N=C2N1` [Anagrelide, 6,7-dichloro-1,5-dihydroimidazo[2,1-b]-quinazolin-2(3H)-one], the IC50 in data set [1] (in vitro, TPO-induced, read-out: estimated IC50 for inhibition of TPO-induced megakaryocytopoiesis) was around 26 nM; in data set [2], around 29 nM. Moreover, the “effect on erythroid or myelomonocytic differentiation” value in data set [3] is “does not affect”. Besides, the first pass effect in data set [4] was above 50%. Further, in data set [4], the typical half-life was 1.5 h.

`O=C1NC2=Nc3ccc(Cl)c(Cl)c3CN2C1O` (stereo not shown) [3-hydroxyanagrelide]: the “potency as PDE III inhibitor relative to anagrelide” value in data set [5] was “over 40 fold”. Besides, in data set [6], the “exposure in vivo relative to parent drug” value is given as 2-3 fold. Further, in data set [1] (compared with anagrelide), the “potency in inhibition of megakaryocytopoiesis relative to parent drug” value was “no more potent than the parent drug”. Further, the typical half-life in data set [4] is 2.5 h.

Take `Cc1[nH]c(=O)c(C#N)cc1-c1ccncc1` [milrinone]: the IC50 in data set [2] is 170 to 350 nM.
